Values belong to the molecule of their own block, whether it stands above or below them.
Experiments:
FTase = FTase (Homo sapiens, UniProt P49354+P49356); experiment: FTase prenylation assay (partially purified FTase, recombinant H-ras, [3H] farnesyl pyrophosphate); assay type: biochemical; conditions: 3 μM recombinant H-ras, 440 nM [3H] FPP, 15 minutes at 37° C.
GGTase = GGTase (Homo sapiens, UniProt P49354+P53609); experiment: GGTase prenylation assay (partially purified GGTase, recombinant H-ras 61 L CAIL, [3H] geranylgeranyl diphosphate); assay type: biochemical; conditions: 5 μM recombinant H-ras (61 L, CAIL), 1 μM [3H] geranylgeranyl diphosphate
[1] = tested on: H-ras farnesylation in H-ras (61 L) transformed NIH3T3 fibroblasts; experiment: Inhibition of H-ras farnesylation in whole cells (Western blot); assay type: cell-based; conditions: treated 24 hours
Experimental: The ability of compounds of the invention to inhibit H-ras farnesylation and rapl geranylgeranylation in whole cells was determined. H-ras (61 L) transformed NIH3T3 fibroblasts were generously provided by C. Der, Univ. N. Carolina. These fibroblasts were treated for 24 hours with 50 μM lovastatin (control) or the indicated concentrations of inhibitor. The cells were lysed in 1% NP-40, 5mM Tris-HCl (pH 8.0), 5mM EDTA, 0.1mM N-tosyl-L-phenylalanine chloromethyl ketone, 0.1mM N-tosyl-L-lysine chloromethyl ketone, and 1 mM phenylmethylsulfonyl fluoride. The lysate was centrifuged (15000×g, 5 minutes.) and the supernatant was used as a cell extract. Total protein was separated by SDS-PAGE in 15% acrylamnide gel. After transfer to IMMOBILON P™ membrane (Millipore), the blots were probed with LA069 mouse monoclonal antibody to H-ras (Quality Biotech), or rabbit polyclonal antibody to rap1/Krev (Santa Cruz Biotechnology). All Western blots were developed using ECL chemiluminescent reagents (Amersham).

[2] = tested on: anchorage-independent cell growth; experiment: Soft agar, anchorage-independent cell growth (Table 2); assay type: cell-based
MIA PaCa-2 cells [3] = experiment: Anchorage-independent growth of tumor cells in culture, compound 10 and paclitaxel; assay type: cell-based; conditions: for number of colonies: 17 day incubation
Experimental: 4×10^3MIA PaCa-2 cells (ATCC CRL1420) were seeded on 24-well culture plates in 0.2 mL of 0.33 Noble agar in 10% fetal calf serum/RPMI1640 medium over 0.4 mL of 0.66% Noble agar in the same culture medium. The top agar layer was overlayed with 0.2 mL of 0.66% Noble agar in culture medium. The upper agar was covered with 0.2 mL of culture medium containing the indicated concentration of paclitaxel and the indicated concentration of compound 10.
At the end of a 17 day incubation, 0.2 mL of 3.3 mg/mL 3-[4,5-dimethylthiazol-2-yl]-2,5-diphenyltetrazolium bromide in phosphate buffered saline was added and incubated for 1 hour. The number of stained colonies was analyzed with an image analyzer computer program.

MIA PaCa-2 cells [4] = experiment: In vivo tumor model, subcutaneous MIA PaCa-2 tumors in nude mice; parameters: species or system nude mice (BALB/c-nu/nu)
Experimental: 5×10^6 MIA PaCa-2 cells in Hank's balanced salt solution were injected subcutaneously into the flanks of 6 to 8 week old female nude mice (BALB/c-nu/nu) at day 1. […] Compound 10 and paclitaxel were administered intravenously once a day for 5 days from day 6. Tumor volume was measured on the days indicated. Tumor volume was calculated according to the equation: tumor volume (mm^3)=(length×width^2)/2. The results are shown in FIG. 1, where the bars indicated standard deviation. The n value for the assays is 5.

[5] = paclitaxel alone 6.25 mg/kg/day intravenously once a day for 5 days from day 6

IC50 (FTase): 9 nM
IC50 (GGTase): 420 nM
SMILES: CCc1ccc(CC=CC(N)CS)cc1C(=O)NC(CCSC)C(=O)O (stereo not shown)

SMILES: COC(=O)[C@H](CCSC)NC(=O)c1cc(C/C=C/C(N)CS)ccc1C(C)C (stereo partly shown)
IC50 [1]: 22 nM
IC50 [2]: 11 nM

IC50 (FTase): 67 nM
IC50 (GGTase): 4430 nM
SMILES: CSCCC(NC(=O)c1cc(CCCC(N)CS)ccc1C(C)C)C(=O)NCc1ccco1 (stereo not shown)

IC50 (FTase): 1 nM
IC50 (GGTase): 2170 nM
SMILES: CSCCC(NC(=O)c1cc(CC=CC(N)CS)ccc1C)C(=O)O (stereo not shown)

SMILES: CCc1ccc(C/C=C/C(N)CS)cc1C(=O)N[C@@H](CCSC)C(=O)OC (stereo partly shown)
IC50 [1]: 56 nM
IC50 [2]: 13 nM

IC50 (FTase): 80 nM
IC50 (GGTase): 3190 nM
SMILES: COC(=O)C(CCSC)NC(=O)c1cc(CC=CC(N)CS)ccc1C(C)C (stereo not shown)

SMILES: CCc1ccc(C/C=C/C(N)CS)cc1C(=O)N[C@@H](CCSC)C(=O)O (stereo partly shown)
IC50 [1]: 360 nM
IC50 [2]: 950 nM

SMILES: COC(=O)[C@H](CCSC)NC(=O)c1cc(CCCC(N)CS)ccc1C(C)C (stereo partly shown)
IC50 [1]: 28 nM
IC50 [2]: 19 nM

IC50 (FTase): 23 nM
IC50 (GGTase): 450 nM
SMILES: CSCCC(NC(=O)c1cc(CC=CC(N)CS)ccc1C(C)C)C(=O)O (stereo not shown)

SMILES: CSCC[C@H](NC(=O)c1cc(CCCC(N)CS)ccc1C(C)C)C(=O)NCc1ccco1 (stereo partly shown)
IC50 [1]: 200 nM
IC50 [2]: 300 nM

IC50 (FTase): 560 nM
IC50 (GGTase): 1840 nM
SMILES: CCc1ccc(CC=CC(N)CS)cc1C(=O)NC(CCSC)C(=O)OC (stereo not shown)

SMILES: CSCC[C@H](NC(=O)c1cc(C/C=C/C(N)CS)ccc1C)C(=O)O (stereo partly shown)
IC50 [1]: 4000 nM
IC50 [2]: 9000 nM

IC50 (FTase): 300 nM
IC50 (GGTase): 1600 nM
SMILES: COC(=O)C(CCSC)NC(=O)c1cc(CC=CC(N)CS)ccc1C (stereo not shown)

IC50 (FTase): 8 nM
IC50 (GGTase): 680 nM
SMILES: CSCCC(NC(=O)c1cc(CCCC(N)CS)ccc1C(C)C)C(=O)O (stereo not shown)

SMILES: COC(=O)[C@H](CCSC)NC(=O)c1cc(CCC[C@@H](N)CS)ccc1C(C)C.Cl [Compound 10]
number of colonies (MIA PaCa-2 cells [3]; compound 10 3.13 nM + paclitaxel 0.63 nM): 255
number of colonies (MIA PaCa-2 cells [3]; compound 10 3.13 nM + paclitaxel 1.25 nM): 204
number of colonies (MIA PaCa-2 cells [3]; compound 10 3.13 nM + paclitaxel 2.5 nM): 64
number of colonies (MIA PaCa-2 cells [3]; compound 10 3.13 nM + paclitaxel 5 nM): 8
number of colonies (MIA PaCa-2 cells [3]; compound 10 3.13 nM, paclitaxel 0 nM): 271
number of colonies (MIA PaCa-2 cells [3]; compound 10 6.25 nM + paclitaxel 0.63 nM): 214
number of colonies (MIA PaCa-2 cells [3]; compound 10 6.25 nM + paclitaxel 1.25 nM): 168
number of colonies (MIA PaCa-2 cells [3]; compound 10 6.25 nM + paclitaxel 2.5 nM): 36
number of colonies (MIA PaCa-2 cells [3]; compound 10 6.25 nM + paclitaxel 5 nM): 4
number of colonies (MIA PaCa-2 cells [3]; compound 10 6.25 nM, paclitaxel 0 nM): 210
number of colonies (MIA PaCa-2 cells [3]; compound 10 12.5 nM + paclitaxel 0.63 nM): 203
number of colonies (MIA PaCa-2 cells [3]; compound 10 12.5 nM + paclitaxel 1.25 nM): 148
number of colonies (MIA PaCa-2 cells [3]; compound 10 12.5 nM + paclitaxel 2.5 nM): 22
number of colonies (MIA PaCa-2 cells [3]; compound 10 12.5 nM + paclitaxel 5 nM): 1
number of colonies (MIA PaCa-2 cells [3]; compound 10 12.5 nM, paclitaxel 0 nM): 189
number of colonies (MIA PaCa-2 cells [3]; compound 10 25 nM + paclitaxel 0.63 nM): 173
number of colonies (MIA PaCa-2 cells [3]; compound 10 25 nM + paclitaxel 1.25 nM): 124
number of colonies (MIA PaCa-2 cells [3]; compound 10 25 nM + paclitaxel 2.5 nM): 16
number of colonies (MIA PaCa-2 cells [3]; compound 10 25 nM + paclitaxel 5 nM): 1
number of colonies (MIA PaCa-2 cells [3]; compound 10 25 nM, paclitaxel 0 nM): 161
number of colonies (MIA PaCa-2 cells [3]; compound 10 50 nM + paclitaxel 0.63 nM): 119
number of colonies (MIA PaCa-2 cells [3]; compound 10 50 nM + paclitaxel 1.25 nM): 74
number of colonies (MIA PaCa-2 cells [3]; compound 10 50 nM + paclitaxel 2.5 nM): 0
number of colonies (MIA PaCa-2 cells [3]; compound 10 50 nM + paclitaxel 5 nM): 0
number of colonies (MIA PaCa-2 cells [3]; compound 10 50 nM, paclitaxel 0 nM): 97
number of colonies (MIA PaCa-2 cells [3]; compound 10 100 nM + paclitaxel 0.63 nM): 72
number of colonies (MIA PaCa-2 cells [3]; compound 10 100 nM + paclitaxel 1.25 nM): 26
number of colonies (MIA PaCa-2 cells [3]; compound 10 100 nM + paclitaxel 2.5 nM): 0
number of colonies (MIA PaCa-2 cells [3]; compound 10 100 nM + paclitaxel 5 nM): 0
number of colonies (MIA PaCa-2 cells [3]; compound 10 100 nM, paclitaxel 0 nM): 64
number of colonies (MIA PaCa-2 cells [3]; compound 10 200 nM + paclitaxel 0.63 nM): 30
number of colonies (MIA PaCa-2 cells [3]; compound 10 200 nM + paclitaxel 1.25 nM): 11
number of colonies (MIA PaCa-2 cells [3]; compound 10 200 nM + paclitaxel 2.5 nM): 0
number of colonies (MIA PaCa-2 cells [3]; compound 10 200 nM + paclitaxel 5 nM): 0
number of colonies (MIA PaCa-2 cells [3]; compound 10 200 nM, paclitaxel 0 nM): 23
number of colonies (MIA PaCa-2 cells [3]; compound 10 400 nM + paclitaxel 0.63 nM): 6
number of colonies (MIA PaCa-2 cells [3]; compound 10 400 nM + paclitaxel 1.25 nM): 1
number of colonies (MIA PaCa-2 cells [3]; compound 10 400 nM + paclitaxel 2.5 nM): 0
number of colonies (MIA PaCa-2 cells [3]; compound 10 400 nM + paclitaxel 5 nM): 0
number of colonies (MIA PaCa-2 cells [3]; compound 10 400 nM, paclitaxel 0 nM): 3
interaction with paclitaxel (MIA PaCa-2 cells [3]; compound 10 at 3.13 to 200 nM with paclitaxel 2.5 to 5 nM): synergistic
interaction with paclitaxel (MIA PaCa-2 cells [3]; compound 10 at 100 to 200 nM with 1.25 nM paclitaxel): synergistically tumoricidal
tumor regression (MIA PaCa-2 cells [4]; compound 10 25 mg/kg/day plus paclitaxel 6.25 mg/kg/day intravenously once a day for 5 days from day 6, by 20 days after tumor cell implantation): all tumors in all mice had completely regressed

SMILES: CSCC[C@H](NC(=O)c1cc(C/C=C/C(N)CS)ccc1C(C)C)C(=O)O (stereo partly shown)
IC50 [1]: 430 nM
IC50 [2]: 160 nM

SMILES: CSCC[C@H](NC(=O)c1cc(CCCC(N)CS)ccc1C(C)C)C(=O)O (stereo partly shown)
IC50 [1]: 390 nM
IC50 [2]: 150 nM

SMILES: COC(=O)[C@H](CCSC)NC(=O)c1cc(C/C=C/C(N)CS)ccc1C (stereo partly shown)
IC50 [1]: 120 nM
IC50 [2]: 75 nM

IC50 (FTase): 73 nM
IC50 (GGTase): 4440 nM
SMILES: COC(=O)C(CCSC)NC(=O)c1cc(CCCC(N)CS)ccc1C(C)C (stereo not shown)

SMILES: CC(=O)O[C@H]1C(=O)[C@@]2(C)[C@H]([C@H](OC(=O)c3ccccc3)[C@]3(O)C[C@H](OC(=O)[C@H](O)[C@@H](NC(=O)c4ccccc4)c4ccccc4)C(C)=C1C3(C)C)[C@]1(OC(C)=O)CO[C@@H]1C[C@@H]2O [Paclitaxel, paclitaxel, reference compound]
number of colonies (MIA PaCa-2 cells [3]; paclitaxel 0.63 nM, compound 10 0 nM): 235
number of colonies (MIA PaCa-2 cells [3]; paclitaxel 1.25 nM, compound 10 0 nM): 234
number of colonies (MIA PaCa-2 cells [3]; paclitaxel 2.5 nM, compound 10 0 nM): 172
number of colonies (MIA PaCa-2 cells [3]; paclitaxel 5 nM, compound 10 0 nM): 48
tumor growth (MIA PaCa-2 cells [4]; [5]): inhibited tumor growth
tumor regression (MIA PaCa-2 cells [4]; [5]): no tumor regression ever occurred
